Values of other authors as cited in US9132083B2, “Delivery system comprising a silicon-containing material” (SISAF Ltd., priority 2009, dated 2015).

[Na+].[O-][Si](O)(O)O [Na^+(OSA)^− salt]
pKa: about 6
